Here are results for 1 molecule from US20230381196A1, “COMPOSITIONS COMPRISING BISFLUOROALKYL-1,4-BENZODIAZEPINONE COMPOUNDS FOR TREATING ADENOID CYSTIC CARCINOMA” (AYALA PHARMACEUTICALS INC., priority 2020, published 2023).

The nature of data set [1]: Phase 2 trial: Compound (1) plasma concentration / PK. The format is in vivo, human. Here is the method: FIGS. 5A-5B. Compound (1) plasma concentration over time since last dose^a The concentration of Compound (1) in plasma in subjects on days 0-7 after being administered 4 mg Compound (1) on week 1 (FIG. 5A) and on week 4 (FIG. 5B). Dots represent individual subject data; lines represent geometric means. Orange lines: Phase 2 data. Green lines: Phase 1 data.
FIG. 6. Effect of CYP inhibitors and substrates on Compound (1) PK^b. Effect of concomitant administration of CYP inhibitors or substrates on the PK of Compound (1) in subjects administered 4 mg Compound (1) once per week. Box plots represent median, 25/75 percentile, and 2/98 percentile; groups with >1 subject represented are shown. 2C19; 2D6 (weak), 1A2, 3A4, 2D6
(§1) Starting on Cycle 1, Day 1, eligible subjects enrolled in the study received Compound (1), 4 mg intravenously (IV) weekly (qwk), on Days 1, 8, 15, and 22 of each 28-day cycle until disease progression, unacceptable toxicity, or consent withdrawal. Paired tumor biopsies were collected at screening (fresh or archival within 5 years) and upon confirmation of disease progression (provided medically safe and not contraindicated). Samples were sent to a central vendor for NGS analysis. Formalin-fixed paraffin embedded (FFPE) slides were evaluated by IHC for NICDI stain.

The subject of data set [2] is recurrent or metastatic ACC with Notch-activating mutations. Briefly: Phase 2 trial of Compound (1) in ACC with Notch-activating mutations: response. The format is in vivo, human. The settings on record: 4 mg IV once weekly.
Text: FIG. 1. Schema and Baseline Characteristics. Subjects enrolled in the Phase 2 Clinical Trial had (1) Recurrent/metastatic (R/M) adenoid cystic carcinoma (ACC); (2) Notch-activating mutations; (3) Disease progression within prior 6 months, and (4) Eastern Cooperative Oncology Group (ECOG) score <2 (Fully active; no performance restrictions. 1. Strenuous physical activity restricted; fully ambulatory and able to carry out light work. 2. Capable of all self-care but unable to carry out any work activities). Cohort 1 was administered Compound (1) QW at a dose of 4 mg (n=45), and Cohort 2 will be administered Compound (1) QW at a dose of 6 mg (n=42). The primary endpoint is ORR per RECIST v1.1 or modified MDA Bone Response Criteria, by Investigator. Secondary endpoints include Duration of Response (DoR), Progression-Free Survival (PFS), Overall Survival (OS), Safety, and PharmacoKinetics (PKs). The study was conducted in North America, Europe and Israel. aData cutoff: Jul. 30, 2020. ^bSubjects may select more than one category. MDA, M D Anderson.
FIG. 2. Best Overall Responses by Investigator Review (n=40)^a. Subjects were administered 4 mg Compound (1) once per week. The percent change in the tumor diameter is presented for individual subjects. Subjects with Partial Response (PR) are marked in yellow; Stable disease (SD) in dark blue; Progressive Disease (PD) in gray; and Not Evaluable (NE) in black. *confirmed responses.
A Phase 2, Simon 2-Stage optimal design, non-comparative, open-label, single-arm, multicenter study of Compound (1) was conducted in subjects with recurrent or metastatic (RIM) ACC (bone-exclusive disease allowed) who harbor Notchl, Notch2, Notch3, or Notch4 activating mutations (Notch1-4′ nn. Subjects with disease progression ≤6 months of enrollment or newly diagnosed metastatic disease were allowed.
Subjects with known activating Notch mutations, per NGS test results gave their informed consent and underwent screening assessments to determine study eligibility over a 28-day screening period. Available mutation status from prior tests with any commercially available or locally developed NGS assay were acceptable. Any newly characterized mutation (such as tandem duplication, variant allele frequency etc.), was evaluated with the sponsor on a case-by-case basis.
as §1
During the treatment period, subjects underwent radiographic assessments every 8 weeks (±3 days) for review by Independent Central Review (ICR) as well as by the Investigator. Other assessments performed included safety exploratory biomarkers.
Compound (1) is a potent and selective inhibitor of gamma secretase-mediated Notch signaling. Compound (1) was administered IV at the dose of 4 mg every 7 days (1 day; QW) over 28-day cycles until disease progression, unacceptable toxicity, or consent withdrawal. Compound (1) injection was developed as a single-use sterile solution (1.2 mg/mL; […]) for IV administration in clinical studies; each vial contained 5 mL (equivalent of 6 mg per vial). It was formulated as a sterile concentrate containing Cremophor and ethanol and was diluted with 0.9% Sodium Chloride injection, USP (normal saline) or 5% Dextrose Injection, USP (D5W) to concentrations between 0.01 mg/mL and 0.06 mg/mL. […]

For the next data set, the system named is ACC83 cells. The data set can be described thus: Boyden chamber invasion assay. Conditions: 10 nM for 14 days, 24 h transwell. The data set is classed as cell-based, Human. Here is the method: FIG. 11C. Effect of Compound (1) monotherapy on cell invasion in ACC83 cell line. ACC83 cells were treated with either 10 nM Compound (1) or DMSO (control) for 14 days. Cells were then placed transwell chambers and after 24 h, the membranes were stained with crystal violet. Cells that had migrated through the membrane were photographed (left panel) and counted. The average number of ACC83 cells per field that migrated through the membrane are shown in a bar plot (right panel).
Methods: A wound healing assay was carried out to assess migration potential of ACC83 and ACC112 cells. Cells were cultured in triplicate in 6-well plates (1×10^6 cells per well) containing culture inserts (Ibidi). On reaching 90% confluence, the inserts were removed, and cells were cultured for 12 hr. Gap area in individual wells was determined using ImageJ. The gap area percentage was calculated as the gap area at 12 hr relative to the gap area at 0 hr. A Boyden chamber assay was carried out to assess the invasion potential of ACC83 and ACC112 cells. […] After 24 h incubation, the cells in the upper chamber were carefully removed with cotton swab, and the cells that had invaded through Matrigel were stained with 1DiffQuick, photographed at 40× magnification and quantified across three random fields.

For another data set, the system named is ACC112 cells. The data set can be described thus: Wound healing (migration) assay. Conditions: 10 nM for 14 days, vs untreated cells. The format is cell-based, Human. Here is the method:
FIG. 11B. Effect of Compound (1) monotherapy on cell migration in ACC112 cell line. ACC112 cells were treated with either 10 nM Compound (1) or DMSO (control) for 14 days. Cells were then plated in wells containing inserts and allowed to attach for 12 h. The inserts were removed, and the gap was photographed at 0 h and at 12 h (left panel).
Methods: A wound healing assay was carried out to assess migration potential of ACC83 and ACC112 cells. Cells were cultured in triplicate in 6-well plates (1×10^6 cells per well) containing culture inserts (Ibidi). On reaching 90% confluence, the inserts were removed, and cells were cultured for 12 hr. Gap area in individual wells was determined using ImageJ. The gap area percentage was calculated as the gap area at 12 hr relative to the gap area at 0 hr. A Boyden chamber assay was carried out to assess the invasion potential of ACC83 and ACC112 cells. Cells were cultured (1×10^4 cells per well) in triplicate into the upper chamber of Matrigel-coated transwell chambers (8-μm pore size, Corning) in serum-free medium, while 10% FBS medium was added to the bottom chamber to stimulate invasion. After 24 h incubation, the cells in the upper chamber were carefully removed with cotton swab, and the cells that had invaded through Matrigel were stained with 1DiffQuick, photographed at 40× magnification and quantified across three random fields.

With `CN1C(=O)[C@@H](NC(=O)[C@H](CCC(F)(F)F)[C@H](CCC(F)(F)F)C(N)=O)N=C(c2ccccc2)c2ccccc21` [Compound (1), (2R,3S)—N-((3S)-1-methyl-2-oxo-5-phenyl-2,3-dihydro-1H-1,4-benzodiazepin-3-yl)-2,3-bi s(3,3,3-trifluoropropyl)succinamide], the “PK of plasma concentration compared with Phase 1 study” value in data set [1] (4 mg dose, week 1 and week 4) is listed as “equivalent to the PK from the Phase 1 study”. In addition, the “effect of inhibitors or substrates of different CYPs on the PK” value in data set [1] (4 mg once per week, concomitant CYP inhibitors or substrates) was “no significant effect”. The “partial responses achieved by week 16” value in data set [2] is recorded as 5 out of 6. Also, in data set [2] (16 out of 40), the “subjects in the study for at least 24 weeks or still in the study not yet having reached 24 weeks” value is reported as 40%. Moreover, in data set [2] (by investigator, n=40), the “Missing/NE, best overall response (unconfirmed)” value is 3% (1); the “PD, best overall response (unconfirmed)” value is 30% (12); the “PR, best overall response (unconfirmed)” value is recorded as 15% (6); the overall response rate was determined as 15%. Besides, the “radiographic scans, baseline vs beginning of Cycle 3 (Week 8)” value in data set [2] (4 subjects who achieved partial response) was “tumor shrinkage”. Further, the cell invasion entry in the data set on ACC83 cells is reported as “substantially decreased the invasion”. Further, the “cell migration (relative gap width at 12 h)” value in the data set with ACC112 cells was “significantly inhibited the migration”.
